The source of these data is publication PMC8294059, “Identification and Immune Assessment of T Cell Epitopes in Five Plasmodium falciparum Blood Stage Antigens to Facilitate Vaccine Candidate Selection and Optimization” (Frontiers in Immunology, 2021).

The term IC50 denotes the point on the concentration scale where inhibition reaches its midpoint.

Structures are written as SMILES. Where a SMILES comes first, the peptide text is derived from it.

Test in all cases: biochemical
Type in all cases: binding

One assay addresses T1, HLA-DRB1*0101 (Homo sapiens, UniProt P01903+P01911, A100R/D57E/F55L/F60I/F76Y/I96L/L162R/M171V/P40L/Q125E/R42F/V115G/Y59C).
T1 construct: purchased
As to conditions: binding inhibition assay; NB = non-binder (no dose-dependent inhibition); read-out: DRB1*0101 IC50. In a few lines:
(§1)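 IC50 values reflect how well each test peptide displaces a labeled high-affinity reference peptide from commercially available HLA-DRB1 allele monomers. Final test concentrations spanned 100,000 nM to 100 nM, with detection by europium-based time-resolved fluorescence after anti-HLA-DR capture.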

The next assay concerns the target T2, HLA-DRB1*0401 (Homo sapiens, UniProt P01903+P01911, A100K/A169T/F76Y/I96L/K127E/L162R/M171V/N62H/P40V/Q125Y/R42H/S133A/S149N/S66Y/V115G/V209L/W38E).
T2 construct: purchased
To be noted: binding inhibition assay; NB = non-binder (no dose-dependent inhibition); read-out: DRB1*0401 IC50. In a few lines: as §1

Another assay concerns the target HLA-DRB1*0701 (Homo sapiens, UniProt P01903+P01911, A100R/A102G/A103Q/D57E/D86V/E43K/F76Y/K127E/L162R/M171V/P40G/Q125H/Q99D/R33Q/R42Y/R54Q/S133A/S66F/T210M/V115G/Y107V/Y59L/Y89S). As to conditions: binding inhibition assay; NB = non-binder (no dose-dependent inhibition); read-out: DRB1*0701 IC50. In a few lines: as §1
A further assay deals with HLA-DRB1*0801 (Homo sapiens, UniProt P01903+P01911, A100R/A103L/A169T/D86S/F76Y/H45Y/I96F/K41T/L162R/M171V/P40S/Q125H/Q178H/Q39Y/Q99D/R218S/R42G/S66Y/V115G/W38E). To be noted: binding inhibition assay; NB = non-binder (no dose-dependent inhibition); read-out: DRB1*0801 IC50. In a few lines: as §1
For another assay, the target named is HLA-DRB1*1101 (Homo sapiens, UniProt P01903+P01911, A100R/A169T/A87E/I96F/K41T/L162R/M171V/P40S/Q125H/Q178H/Q39Y/Q99D/R42S/S66Y/T262R/V115G/W38E). As to conditions: binding inhibition assay; NB = non-binder (no dose-dependent inhibition); read-out: DRB1*1101 IC50. In a few lines: as §1
HLA-DRB1*1101, sequence (P01903 26-254 limits assumed, other chains not shown): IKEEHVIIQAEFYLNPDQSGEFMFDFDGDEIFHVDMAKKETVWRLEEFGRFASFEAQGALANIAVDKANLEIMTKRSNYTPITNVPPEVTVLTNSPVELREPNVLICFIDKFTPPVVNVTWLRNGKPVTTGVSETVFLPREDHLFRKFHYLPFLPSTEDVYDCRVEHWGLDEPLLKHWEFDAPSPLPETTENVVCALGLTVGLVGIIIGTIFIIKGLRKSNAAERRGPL
Another assay concerns the target HLA-DRB1*1301 (Homo sapiens, UniProt P01903+P01911, A100E/A169T/K41T/L162R/M171V/P40S/Q125H/Q178H/Q39Y/Q99D/R42S/S66N/T262R/W38E/Y61H). As to conditions: binding inhibition assay; NB = non-binder (no dose-dependent inhibition); read-out: DRB1*1301 IC50. In a few lines: as §1
Another assay has as its target T3, HLA-DRB1*1501 (Homo sapiens, UniProt P01903+P01911).
T3 construct: purchased
To be noted: binding inhibition assay; NB = non-binder (no dose-dependent inhibition); read-out: DRB1*1501 IC50. In a few lines:
as §1

On to `CC[C@H](C)[C@H](NC(=O)CNC(=O)[C@H](CCC(N)=O)NC(=O)[C@H](CO)NC(=O)[C@H](CO)NC(=O)[C@H](CO)NC(=O)[C@H](Cc1ccc(O)cc1)NC(=O)[C@@H](NC(=O)[C@H](Cc1ccccc1)NC(=O)[C@H](CC(C)C)NC(=O)[C@@H](NC(=O)[C@H](CCCNC(=N)N)NC(=O)[C@H](CC(N)=O)NC(=O)[C@H](CCC(=O)O)NC(=O)[C@H](CC(=O)O)NC(C)=O)[C@@H](C)O)[C@@H](C)CC)C(=O)N[C@@H](Cc1ccc(O)cc1)C(=O)N[C@@H](CC(N)=O)C(=O)N[C@H](C(=O)N[C@@H](Cc1c[nH]cn1)C(=O)N[C@H](C(N)=O)[C@@H](C)O)[C@@H](C)CC` [CYRPA_008] (Ac-DENRTLFIYSSSQGIYNIHT-NH2), for which the 50% inhibitory concentration (IC50) on HLA-DRB1*0101 is 0.004 µM; on HLA-DRB1*0401, 1.05 µM; on HLA-DRB1*0701, 0.219 µM; on HLA-DRB1*0801, 11.5 µM; on HLA-DRB1*1101 it was 1.13 µM; on HLA-DRB1*1301, 6.98 µM. Also, the IC50 at HLA-DRB1*1501 amounted to 0.05 µM.

In the case of `CC[C@H](C)[C@H](NC(=O)[C@H](CC(=O)O)NC(=O)[C@H](Cc1ccc(O)cc1)NC(=O)[C@H](CCC(=O)O)NC(=O)[C@H](CC(N)=O)NC(=O)[C@H](CCCNC(=N)N)NC(=O)[C@H](C)NC(=O)[C@H](CCCCN)NC(=O)[C@H](C)NC(=O)[C@H](Cc1ccccc1)NC(=O)[C@H](Cc1ccc(O)cc1)NC(=O)[C@H](CC(C)C)NC(=O)[C@@H](NC(=O)[C@H](Cc1ccccc1)NC(=O)[C@H](Cc1ccccc1)NC(=O)[C@H](CO)NC(=O)[C@H](C)NC(C)=O)C(C)C)C(=O)N[C@@H](CCCCN)C(N)=O` [EBA175_001B] (Ac-ASFFVLYFAKARNEYDIK-NH2), the IC50 was determined as 0.678 µM at HLA-DRB1*0101; 2.27 µM on HLA-DRB1*0401; 0.421 µM at HLA-DRB1*0701; 9.88 µM on HLA-DRB1*0801; 0.52 µM at HLA-DRB1*1101; 2.24 µM at HLA-DRB1*1301. At HLA-DRB1*1501, the IC50 amounted to 0.265 µM.

On to `CC[C@H](C)[C@H](NC(=O)[C@H](CCCNC(=N)N)NC(=O)[C@H](CO)NC(=O)[C@@H](NC(=O)[C@H](CCCNC(=N)N)NC(=O)[C@@H](NC(=O)[C@H](C)NC(=O)[C@H](CC(N)=O)NC(=O)[C@@H](NC(=O)[C@@H]1CCCN1C(=O)[C@@H](NC(=O)[C@H](Cc1ccc(O)cc1)NC(=O)[C@H](CCCCN)NC(=O)[C@H](CC(N)=O)NC(=O)[C@H](CCC(N)=O)NC(=O)[C@H](CCCCN)NC(C)=O)C(C)C)[C@@H](C)CC)C(C)C)C(C)C)C(=O)N[C@@H](CC(C)C)C(=O)N[C@@H](CO)C(=O)N[C@@H](Cc1ccccc1)C(=O)N[C@@H](CC(C)C)C(=O)N[C@@H](CC(=O)O)C(=O)N[C@@H](CO)C(N)=O` [EBA175_004] (Ac-KQNKYVPINAVRVSRILSFLDS-NH2), for which the IC50 at HLA-DRB1*0101 came out at 0.004 µM; at HLA-DRB1*0401, 18.2 µM; on HLA-DRB1*0701, 0.018 µM; at HLA-DRB1*0801, 6.12 µM; on HLA-DRB1*1101, 0.396 µM; on HLA-DRB1*1301 it was 1.36 µM. The concentration for half-maximal inhibition (IC50) on HLA-DRB1*1501 is 2.07 µM.

Take `CC[C@H](C)[C@H](NC(=O)[C@H](CO)NC(=O)[C@@H](NC(=O)[C@@H]1CCCN1C(=O)[C@@H](NC(=O)[C@H](CC(=O)O)NC(C)=O)C(C)C)[C@@H](C)CC)C(=O)N[C@H](C(=O)N[C@@H](CCCNC(=N)N)C(=O)N[C@@H](CC(N)=O)C(=O)N[C@@H](CC(N)=O)C(=O)N[C@@H](CCC(=O)O)C(=O)N[C@@H](CCC(N)=O)C(=O)N[C@H](C(=O)N[C@@H](CO)C(=O)N[C@@H](CCC(N)=O)C(=O)N[C@@H](CCC(=O)O)C(=O)N[C@@H](C)C(N)=O)[C@@H](C)O)[C@@H](C)CC` [EBA175_014] (Ac-DVPISIIRNNEQTSQEA-NH2): the IC50 turned out to be 6.15 µM on HLA-DRB1*0101; 3.81 µM on HLA-DRB1*0401; 13.3 µM on HLA-DRB1*0701; 18.7 µM on HLA-DRB1*0801; 16.7 µM at HLA-DRB1*1101; 14.1 µM on HLA-DRB1*1301. For the same compound, at HLA-DRB1*1501, the IC50 was found to be 3.09 µM.

As for `CC[C@H](C)[C@H](NC(=O)[C@H](CC(N)=O)NC(=O)[C@H](Cc1ccc(O)cc1)NC(=O)[C@H](CC(N)=O)NC(=O)[C@H](CO)NC(=O)[C@H](CC(C)C)NC(=O)[C@H](CCC(=O)O)NC(=O)[C@H](CCCCN)NC(=O)[C@H](Cc1ccccc1)NC(=O)[C@H](Cc1c[nH]cn1)NC(=O)[C@H](Cc1ccc(O)cc1)NC(=O)[C@H](CCC(N)=O)NC(=O)[C@@H](N)CC(C)C)C(=O)N[C@@H](C)C(=O)N[C@@H](CC(N)=O)C(=O)N[C@@H](CO)C(=O)N[C@H](C(=O)N[C@@H](CC(=O)O)C(N)=O)[C@@H](C)CC` [RH5_005] (H-LQYHFKELSNYNIANSID-NH2), the IC50 is 0.018 µM at HLA-DRB1*0101; 2.86 µM at HLA-DRB1*0401; 3.79 µM at HLA-DRB1*0701; 19.4 µM on HLA-DRB1*0801; 11.3 µM at HLA-DRB1*1101; 50.9 µM on HLA-DRB1*1301. In addition, the IC50 at HLA-DRB1*1501 came out at 0.025 µM.

On to `CC[C@H](C)[C@H](NC(=O)[C@H](CS)NC(=O)[C@H](CCCCN)NC(=O)CNC(=O)[C@H](Cc1ccc(O)cc1)NC(=O)[C@@H](NC(=O)[C@H](CO)NC(=O)[C@H](CO)NC(=O)[C@H](CCCCN)NC(=O)[C@H](Cc1c[nH]cn1)NC(=O)[C@H](Cc1ccc(O)cc1)NC(=O)[C@@H](NC(=O)[C@H](CO)NC(=O)[C@H](CC(N)=O)NC(=O)[C@H](Cc1ccc(O)cc1)NC(=O)[C@H](CO)NC(=O)[C@H](CC(C)C)NC(=O)[C@H](Cc1c[nH]cn1)NC(C)=O)[C@@H](C)CC)[C@@H](C)O)C(=O)N[C@@H](C)C(N)=O` [RH5_006B] (Ac-HLSYNSIYHKSSTYGKCIA-NH2), for which the IC50 on HLA-DRB1*0101 came out at 1.35 µM; at HLA-DRB1*0401, 2.91 µM; on HLA-DRB1*0701, 19.8 µM; at HLA-DRB1*0801, 18.9 µM; at HLA-DRB1*1101, 0.834 µM; at HLA-DRB1*1301, 29.3 µM. Further, the IC50 on HLA-DRB1*1501 came to 7.8 µM.

Regarding `CC[C@H](C)[C@H](NC(=O)[C@H](Cc1ccc(O)cc1)NC(=O)[C@@H](NC(=O)[C@H](Cc1ccc(O)cc1)NC(=O)[C@H](CO)NC(=O)CNC(=O)[C@H](CCSC)NC(=O)[C@H](CCCCN)NC(=O)[C@H](CCCCN)NC(=O)[C@H](CC(N)=O)NC(=O)[C@H](CC(C)C)NC(=O)[C@H](CC(N)=O)NC(=O)[C@@H](NC(=O)[C@H](CC(C)C)NC(=O)[C@H](CC(C)C)NC(=O)[C@H](CC(C)C)NC(=O)[C@H](CCC(=O)O)NC(=O)[C@@H](N)CO)[C@@H](C)O)[C@@H](C)CC)C(N)=O` [RH5_010B] (H-SELLLTNLNKKMGSYIYI-NH2), the IC50 on HLA-DRB1*0101 stood at 0.077 µM; at HLA-DRB1*0401, 84 µM; at HLA-DRB1*0701, 41.5 µM; on HLA-DRB1*0801 it was 6.46 µM; at HLA-DRB1*1101, 0.204 µM; on HLA-DRB1*1301, 9.34 µM. Also, the IC50 at HLA-DRB1*1501 amounted to 9.97 µM.

Regarding `CC[C@H](C)[C@H](NC(=O)[C@H](CC(N)=O)NC(=O)[C@H](CC(N)=O)NC(=O)[C@H](CC(C)C)NC(=O)[C@H](Cc1c[nH]cn1)NC(=O)[C@H](CCCCN)NC(C)=O)C(=O)N[C@@H](Cc1ccccc1)C(=O)N[C@@H](Cc1c[nH]cn1)C(=O)N[C@@H](Cc1c[nH]cn1)C(=O)N[C@@H](CC(C)C)C(=O)N[C@H](C(=O)N[C@@H](Cc1ccc(O)cc1)C(=O)N[C@H](C(=O)N[C@@H](CC(C)C)C(=O)N[C@@H](CCC(N)=O)C(=O)N[C@@H](CCSC)C(=O)N[C@@H](CCCCN)C(N)=O)C(C)C)[C@@H](C)CC` [RH5_012] (Ac-KHLNNIFHHLIYVLQMK-NH2), the IC50 was found to be 0.025 µM on HLA-DRB1*0101; 7.23 µM on HLA-DRB1*0401; 24.2 µM on HLA-DRB1*0701; 91.7 µM on HLA-DRB1*0801; 33.9 µM on HLA-DRB1*1101; 8.83 µM at HLA-DRB1*1301. Also, the IC50 at HLA-DRB1*1501 turned out to be 7.71 µM.
